Experimental data: US20230279233A1, “ATROROSINS AS FOOD COLORS” (Chromologics ApS, priority 2020, published 2023)
Several values for one entry are separate records, joined by “and”; a condition that tells them apart may be missing. Identical values can stand only once. Entries after “also recorded” stand apart in the source; their conditions may differ. Like-named read-outs stand apart in the source and are kept apart here.

Legend:
[1] = Pharmacokinetic profile in rats, IV and PO; format: in vivo; conditions: for Cmax: read-out: C0/Cmax
Procedure: Resulting powder from example 2 was sent to Evotec to asses for the pharmacokinetic profile of atrorosin. 6 rats were used, 3 rats for IV injection of atrorosin and 3 rats for PO. The rats were injected or given through mouth gauge 2 mg/kg, and blood samples were taken at regular intervals.
In comparison to example 10, similar carminic acid was also sent to Evotec to assess the pharmacokinetic profile.

[2] = tested on: TA 98; test: mini-Ames (AMES MPF) genotoxicity; format: cell-based; conditions: for genotoxic effects (in words): mini-Ames study
Procedure: Resulting powder from example 2 was sent to Cyprotox to asses for genotoxicity in a mini-Ames experiment. 43.2 mg of atrorosin was sent to Cyprotox. Mini-Ames test were conducted under the guidelines of OECD.
In comparison to the atrorosin tested above, similar 46.4 mg of carminic acid was also sent to Cyprotox to assess for genotoxicity.

[3] = DPPH antioxidant assay; conditions: 0 μM to 45 μM, 30 minutes, absorbance 517 nm, compared to Trolox (FIG. 3)
Procedure: To assess antioxidant activity of Atrorosin-E, the common DPPH (2,2 Diphenyl-1-picrylhydrazyl) assay was used. A working solution of DPPH was made with a concentration of 220 μg/ml in ethanol. 1 g of the resulting powder from Example 2 was used to make a dilution row of atrorosin-E from 0 μM to 45 μM. […] of each sample was reacted to 1000 μL of DPPH for 30 minutes in the dark before absorbance was measured.
Antioxidant activity was determined by calculating the inhibition of emission of DPPH by measuring absorbance of DPPH at 517 nm before and after incubation with reactants. As Atrorosins have background emission at 517, the before sample was measured seconds after addition of atrorosins rather than before. Antioxidant activity of Atrorosin-E was compared to the standard Trolox (FIG. 3).

[4] = Temperature stability at 60° C. and 80° C. in McIlvaine buffer pH 5, absorption maxima
Procedure: Buffer and atrorosin was mixed for 5 minutes before the solutions were subjected heating in an incubator at 60° C. and 80° C. to colorimetric analysis using spectrophotometer. The absorption maxima at 425 nm and 490 nm were determined in a microtiter plate with a 0.45 cm cell length with buffer as blank. In comparison to the data in Table 3, the absorption spectrum of betanin is determined as above. […] In comparison to Table 5, the absorption spectrum of betanin is determined as above.

[5] = pH stability in McIlvaine buffer pH 2.2-7.2, absorption maxima by spectrophotometer; format: physicochemical
[6] = rat, IV 2 mg/kg, individual rats 1-3, 2 mg/kg
[7] = rat, PO 2 mg/kg, individual rats 4-6, 2 mg/kg

## CCCCCCCC(=O)C1=C2C=C3C=C(/C=C\C(=O)O)N([C@@H](CCC(=O)O)C(=O)O)C=C3C(=O)C2(C)OC1=O (stereo partly shown) [Atrorosin-E]
[1]; rat, IV 2 mg/kg, Mean
  C0/Cmax: 10098 ng/mL
  CL/CL_F (plasma clearance): 16 ± 2 mL/min/kg
  Clast: 3.15 ng/mL
  MRT: 0.5 h
  Vdss: 0.5 L/kg
  t½: 1.3 ± 0.6 h
  Cmax: 18.6 µM
[1]; rat, IV 2 mg/kg, individual rats 1-3
  Vdss: 0.5 L/kg
[1]; [6]
  AUC0-t: 2330 ng · hr/mL and 1818 ng · hr/mL and 2055 ng · hr/mL and 4297 nM · hr and 3352 nM · hr and 3790 nM · hr
  AUCinf: 2336 ng · hr/mL and 1822 ng · hr/mL and 2063 ng · hr/mL and 4308 nM · hr and 3360 nM · hr and 3804 nM · hr
  C0/Cmax: 9019 ng/mL and 10685 ng/mL and 10589 ng/mL
  CL/CL_F: 14 mL/min/kg and 18 mL/min/kg and 16 mL/min/kg
  Clast: 3.26 ng/mL and 3.45 ng/mL and 2.73 ng/mL
  MRT: 0.5 h (2×) and 0.4 h
  Tlast: 8 h (2×) and 6 h
  t½: 1.3 h and 0.8 h and 1.9 h
  Cmax: 16.6 µM and 19.7 µM and 19.5 µM
[1]; rat, PO 2 mg/kg, Mean
  C0/Cmax: 4.46 ng/mL
  Clast: 3.28 ng/mL
  Cmax: 0.0082 µM
[1]; rat, PO 2 mg/kg, Mean, 2 mg/kg
  Bioavailability (%) Using AUC0-t: 0.3%
[1]; rat, PO 2 mg/kg, Mean, listed as atrorosin, 2 mg/kg
  Bioavailability (%) Using AUC0-t: 0.3%
[1]; rat, PO 2 mg/kg, Median
  Tmax: 1 h
[1]; rat, PO 2 mg/kg, individual rats 4-6
  Tlast: 2 h
[1]; [7]
  AUC0-t: 6.35 ng · hr/mL and 7.6 ng · hr/mL and 5.76 ng · hr/mL and 11.7 nM · hr and 13.9 nM · hr and 10.6 nM · hr
  Bioavailability (%) Using AUC0-t: 0.3% (2×) and 0.4%
  C0/Cmax: 4.35 ng/mL and 5.35 ng/mL and 3.68 ng/mL
  Clast: 2.6 ng/mL and 2.88 ng/mL
  Tmax: 2 h and 1 h and 0.25 h
  Cmax: 0.00803 µM and 0.0099 µM and 0.00679 µM
[1]; rat, in vivo, po, 2 mg/kg
  Clast: 4.35 ng/mL
[1]; rats, 2 mg/kg IV or PO, 2 mg/kg
  safety when ingested / adverse effects on rats (in words): safe when ingested; also recorded: nor does it have any adverse effects on rats
[2]; TA 98 +S9, 62.5 μg/ml
  Fold increase (over baseline): 0.55
  mean # pos. Wells: 1.33
[2]; TA 98 +S9, 125 μg/ml
  Fold increase (over baseline): 0.28
  mean # pos. Wells: 0.67
[2]; TA 98 +S9, 250 μg/ml
  Fold increase (over baseline): 0.42
  mean # pos. Wells: 1.00
[2]; TA 98 +S9, 500 μg/ml
  Fold increase (over baseline): 0.28
  mean # pos. Wells: 0.67
[2]; TA 98 +S9, 1000 μg/ml
  Fold increase (over baseline): 0.69
  mean # pos. Wells: 1.67
[2]; TA 98 +S9, 2000 μg/ml
  Fold increase (over baseline): 0.00
  mean # pos. Wells: 0.00
[2]; TA 98 −S9, 62.5 μg/ml
  Fold increase (over baseline): 0.00
  mean # pos. Wells: 0.00
[2]; TA 98 −S9, 125 μg/ml
  Fold increase (over baseline): 0.76
  mean # pos. Wells: 1.00
[2]; TA 98 −S9, 250 μg/ml
  Fold increase (over baseline): 1.52
  mean # pos. Wells: 2.00
[2]; TA 98 −S9, 500 μg/ml
  Fold increase (over baseline): 0.76
  mean # pos. Wells: 1.00
[2]; TA 98 −S9, 1000 μg/ml
  Fold increase (over baseline): 0.51
  mean # pos. Wells: 0.67
[2]; TA 98 −S9, 2000 μg/ml
  Fold increase (over baseline): 0.51
  mean # pos. Wells: 0.67
[2]
  genotoxic effects (in words): do not exert any genotoxic effects
[2]; listed as atrorosin
  genotoxic effects (in words): not genotoxic; also recorded: neither genotoxic
[3]
  Antioxidant activity (inhibition of DPPH, in words): far more potent antioxidant than the control antioxidant Trolox
[4]; 60° C., pH 5, 1 H
  Absorption at 425 nm: 2.01
  Absorption at 490 nm: 3.53
[4]; 60° C., pH 5, 2 H
  Absorption at 425 nm: 1.98
  Absorption at 490 nm: 3.42
[4]; 60° C., pH 5, 3 H
  Absorption at 425 nm: 1.78
  Absorption at 490 nm: 3.11
[4]; 60° C., pH 5, 24 H
  Absorption at 425 nm: 0.78
  Absorption at 490 nm: 1.31
[4]; 60° C., pH 5, T0: Start
  Absorption at 425 nm: 2.03
  Absorption at 490 nm: 3.55
[4]; 80° C., pH 5, 1 H
  Absorption at 425 nm: 1.66
  Absorption at 490 nm: 2.86
[4]; 80° C., pH 5, 2 H
  Absorption at 425 nm: 1.23
  Absorption at 490 nm: 2.13
[4]; 80° C., pH 5, 3 H
  Absorption at 425 nm: 0.99
  Absorption at 490 nm: 1.71
[4]; 80° C., pH 5, 15 min
  Absorption at 425 nm: 2.00
  Absorption at 490 nm: 3.38
[4]; 80° C., pH 5, T0: Start
  Absorption at 425 nm: 2.04
  Absorption at 490 nm: 3.48
[5]; compared with carminic acid, Tables 1 and 2
  pH stability (in words): superior pH stability at low pH
[5]; pH 2.2
  Absorption at 425 nm: 0.63
  Absorption at 490 nm: 3.30
[5]; pH 3.5
  Absorption at 425 nm: 0.73
  Absorption at 490 nm: 3.92
[5]; pH 5
  Absorption at 425 nm: 0.75
  Absorption at 490 nm: 3.94
[5]; pH 7.2
  Absorption at 425 nm: 0.73
  Absorption at 490 nm: 3.91
